Test results taken from ChEMBL document CHEMBL3638922, “2-amino-3-sulphonyl-tetrahydro-pyrazolo[1,5-A]pyrido-pyrimidine antagonists of serotonin 5-HT6 receptors, methods for the production and use thereof” (2013).

Target: 5-hydroxytryptamine receptor 6 (Homo sapiens, UniProt P50406)
Experiment: Radioligand Binding Assay: The screening of the disclosed compounds for their potential ability to interact with serotonin 5-HT6 receptors was carried out b the method of radioligand binding.

Sequence of 5-hydroxytryptamine receptor 6 (P50406 whole entry): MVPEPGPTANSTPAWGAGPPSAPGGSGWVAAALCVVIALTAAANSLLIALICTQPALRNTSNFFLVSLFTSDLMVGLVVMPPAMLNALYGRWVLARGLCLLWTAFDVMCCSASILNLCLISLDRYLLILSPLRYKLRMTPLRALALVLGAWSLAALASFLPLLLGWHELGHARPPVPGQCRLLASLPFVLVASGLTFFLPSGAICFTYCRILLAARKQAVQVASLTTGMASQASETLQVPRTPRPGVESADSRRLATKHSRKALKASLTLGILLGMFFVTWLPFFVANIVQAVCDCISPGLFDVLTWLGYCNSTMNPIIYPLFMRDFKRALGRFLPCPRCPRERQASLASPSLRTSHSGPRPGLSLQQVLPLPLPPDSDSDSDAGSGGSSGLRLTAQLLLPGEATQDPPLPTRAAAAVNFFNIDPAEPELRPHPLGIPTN

SMILES | IC50 | Ki
CNc1nn2c3c(cnc2c1S(=O)(=O)c1ccccc1)CN(C)CC3 | 0.837 nM | 
CNc1nn2cc3c(nc2c1S(=O)(=O)c1ccccc1)CCN(C)C3 | 7.02 nM | 3.26 nM
